Two compounds from article PMC9856672, “SGC-CAMKK2-1: A Chemical Probe for CAMKK2” (Cells, 2023) can be followed below.

The target in one assay is T1, CDK8 (Homo sapiens, UniProt P49336).
T1 construct: purchased Eurofins DiscoverX KINOMEscan
The assay is described as follows: KINOMEscan 1 μM, CDK8. It counts as binding. The settings on record: 1000 nM; Entrez CDK8; read-out: Percent Control. The text has this:
(§1) Supplement cells-12-00287-s001.zip/File S2. KinomeScan data for the CAMKK2 probe and negative control.xlsx, sheet "SGC-CAMKK2-1" | column: Percent Control

In a further assay the target is T2, PIK3CA(H1047L) (Homo sapiens, UniProt P42336, H1047L).
T2 construct: purchased Eurofins DiscoverX KINOMEscan
The assay is described as follows: KINOMEscan 1 μM, PIK3CA(H1047L). It counts as binding. The settings on record: 1000 nM; Entrez PIK3CA; read-out: Percent Control.
Text: as §1

In a further assay the target is T3, SLK (Homo sapiens, UniProt Q9H2G2).
T3 construct: purchased Eurofins DiscoverX KINOMEscan
The assay is described as follows: KINOMEscan 1 μM, SLK. In kind it is binding. The settings on record: 1000 nM; Entrez SLK; read-out: Percent Control.
Text: as §1

The next assay has as its target T4, LIMK2 (Homo sapiens, UniProt P53671).
T4 construct: purchased Eurofins DiscoverX KINOMEscan
The assay is described as follows: KINOMEscan 1 μM, LIMK2. It counts as binding. The settings on record: 1000 nM; Entrez LIMK2; read-out: Percent Control.
Text: as §1

In another assay the target is T5, KIT(D816H) (Homo sapiens, UniProt P10721, D816H).
T5 construct: purchased Eurofins DiscoverX KINOMEscan
The assay is described as follows: KINOMEscan 1 μM, KIT(D816H). In kind it is binding. The note with it: 1000 nM; Entrez KIT; read-out: Percent Control.
Text: as §1

The target of another assay is T6, CSNK2A1 (Homo sapiens, UniProt P68400).
T6 construct: purchased Eurofins DiscoverX KINOMEscan
The assay is described as follows: KINOMEscan 1 μM, CSNK2A1. The note with it: 1000 nM; Entrez CSNK2A1; read-out: Percent Control. In kind it is binding.
Text: as §1

For another assay, the target named is T7, RET(V804L) (Homo sapiens, UniProt P07949, V804L).
T7 construct: purchased Eurofins DiscoverX KINOMEscan
The assay is described as follows: KINOMEscan 1 μM, RET(V804L). The settings on record: 1000 nM; Entrez RET; read-out: Percent Control. In kind it is binding.
Text: as §1

For assay [1], the target named is T8, AMPK-alpha1 (Homo sapiens, UniProt Q13131).
T8 construct: purchased Eurofins DiscoverX KINOMEscan
The assay is described as follows: KINOMEscan 1 μM, AMPK-alpha1. In kind it is binding. The settings on record: 1000 nM; Entrez PRKAA1; read-out: Percent Control.
Text: as §1

A further assay concerns the target T9, CDKL2 (Homo sapiens, UniProt Q92772).
T9 construct: purchased Eurofins DiscoverX KINOMEscan
The assay is described as follows: KINOMEscan 1 μM, CDKL2. It counts as binding. The note with it: 1000 nM; Entrez CDKL2; read-out: Percent Control.
Text: as §1

Assay [2] concerns the target T10, TIE2 (Homo sapiens, UniProt Q02763).
T10 construct: purchased Eurofins DiscoverX KINOMEscan
The assay is described as follows: KINOMEscan 1 μM, TIE2. In kind it is binding. The note with it: 1000 nM; Entrez TEK; read-out: Percent Control.
Text: as §1

Another assay has as its target T11, BRSK2 (Homo sapiens, UniProt Q8IWQ3).
T11 construct: purchased Eurofins DiscoverX KINOMEscan
The assay is described as follows: KINOMEscan 1 μM, BRSK2. In kind it is binding. The settings on record: 1000 nM; Entrez BRSK2; read-out: Percent Control.
Text: as §1

In the next assay the target is T12, CAMK4 (Homo sapiens, UniProt Q16566).
T12 construct: purchased Eurofins DiscoverX KINOMEscan
The assay is described as follows: KINOMEscan 1 μM, CAMK4. In kind it is binding. The note with it: 1000 nM; Entrez CAMK4; read-out: Percent Control.
Text: as §1

Another assay addresses T13, DRAK1 (Homo sapiens, UniProt Q9UEE5).
T13 construct: purchased Eurofins DiscoverX KINOMEscan
The assay is described as follows: KINOMEscan 1 μM, DRAK1. It counts as binding. The note with it: 1000 nM; Entrez STK17A; read-out: Percent Control.
Text: as §1

The target in another assay is T14, FGFR3(G697C) (Homo sapiens, UniProt P22607, G697C).
T14 construct: purchased Eurofins DiscoverX KINOMEscan
The assay is described as follows: KINOMEscan 1 μM, FGFR3(G697C). It counts as binding. The note with it: 1000 nM; Entrez FGFR3; read-out: Percent Control.
Text: as §1

For another assay, the target named is T15, FLT3(K663Q) (Homo sapiens, UniProt P36888, K663Q).
T15 construct: purchased Eurofins DiscoverX KINOMEscan
The assay is described as follows: KINOMEscan 1 μM, FLT3(K663Q). It counts as binding. The note with it: 1000 nM; Entrez FLT3; read-out: Percent Control.
Text: as §1

Another assay concerns the target T16, LRRK2(G2019S) (Homo sapiens, UniProt Q5S007, G2019S).
T16 construct: purchased Eurofins DiscoverX KINOMEscan
The assay is described as follows: KINOMEscan 1 μM, LRRK2(G2019S). In kind it is binding. The settings on record: 1000 nM; Entrez LRRK2; read-out: Percent Control.
Text: as §1

A further assay deals with T17, MARK2 (Homo sapiens, UniProt Q7KZI7).
T17 construct: purchased Eurofins DiscoverX KINOMEscan
The assay is described as follows: KINOMEscan 1 μM, MARK2. In kind it is binding. The note with it: 1000 nM; Entrez MARK2; read-out: Percent Control.
Text: as §1

Another assay addresses T18, PIK3CA(Q546K) (Homo sapiens, UniProt P42336, Q546K).
T18 construct: purchased Eurofins DiscoverX KINOMEscan
The assay is described as follows: DiscoverX KINOMEscan binding assay at 1 μM, PIK3CA(Q546K). The settings on record: Compound Concentration 1000 nM, read-out: Percent Control.
Text: as §1

The target of assay [3] is T19, RSK1(Kin.Dom.1-N-terminal) (Homo sapiens, UniProt Q15418).
T19 construct: RSK1(Kin.Dom.1-N-terminal); purchased Eurofins DiscoverX KINOMEscan
The assay is described as follows: DiscoverX KINOMEscan binding assay at 1 μM, RSK1(Kin.Dom.1-N-terminal). The settings on record: RSK1(Kin.Dom.1-N-terminal) (RPS6KA1); Compound Concentration 1000 nM; read-out: Percent Control.
Text: as §1

A further assay concerns the target T20, YSK1 (Homo sapiens, UniProt O00506).
T20 construct: purchased Eurofins DiscoverX KINOMEscan
The assay is described as follows: DiscoverX KINOMEscan binding assay at 1 μM, YSK1. The note with it: YSK1 (STK25); Compound Concentration 1000 nM; read-out: Percent Control.
Text: as §1

Another assay concerns the target T21, STK16 (Homo sapiens, UniProt O75716).
T21 construct: purchased Eurofins DiscoverX KINOMEscan
The assay is described as follows: KINOMEscan at 1 μM, STK16. In kind it is binding. The note with it: 1000 nM, read-out: Percent Control. The text has this:
(§2) Supplement cells-12-00287-s001.zip/File S2. KinomeScan data for the CAMKK2 probe and negative control.xlsx, sheet "SGC-CAMKK2-1N" | column: Percent Control

A further assay deals with T22, GRK2 (Homo sapiens, UniProt P25098).
T22 construct: purchased Eurofins DiscoverX KINOMEscan
The assay is described as follows: KINOMEscan at 1 μM, GRK2. In kind it is binding. The settings on record: 1000 nM, read-out: Percent Control.
Text: as §2

The next assay deals with T23, CTK (Homo sapiens, UniProt P42679).
T23 construct: purchased Eurofins DiscoverX KINOMEscan
The assay is described as follows: KINOMEscan at 1 μM, CTK. It counts as binding. The settings on record: 1000 nM, read-out: Percent Control.
Text: as §2

The next assay has as its target T24, FLT1 (Homo sapiens, UniProt P17948).
T24 construct: purchased Eurofins DiscoverX KINOMEscan
The assay is described as follows: KINOMEscan at 1 μM, FLT1. It counts as binding. The note with it: 1000 nM, read-out: Percent Control.
Text: as §2

Assay [4] addresses T10, TIE2. The assay is described as follows: KINOMEscan at 1 μM, TIE2. The note with it: 1000 nM, read-out: Percent Control. In kind it is binding.
Text: as §2

For the next assay, the target named is T25, CSNK2A2 (Homo sapiens, UniProt P19784).
T25 construct: purchased Eurofins DiscoverX KINOMEscan
The assay is described as follows: KINOMEscan at 1 μM, CSNK2A2. The note with it: 1000 nM, read-out: Percent Control. It counts as binding.
Text: as §2

The target of the next assay is T26, p38-delta (Homo sapiens, UniProt O15264).
T26 construct: purchased Eurofins DiscoverX KINOMEscan
The assay is described as follows: KINOMEscan at 1 μM, p38-delta. The settings on record: 1000 nM, read-out: Percent Control. In kind it is binding.
Text: as §2

A further assay deals with T27, CSNK1D (Homo sapiens, UniProt P48730).
T27 construct: purchased Eurofins DiscoverX KINOMEscan
The assay is described as follows: KINOMEscan at 1 μM, CSNK1D. In kind it is binding. The settings on record: 1000 nM, read-out: Percent Control.
Text: as §2

For assay [5], the target named is T8, AMPK-alpha1. The assay is described as follows: KINOMEscan at 1 μM, AMPK-alpha1. It counts as binding. The settings on record: 1000 nM, read-out: Percent Control.
Text: as §2

The target in another assay is T28, GSK3A (Homo sapiens, UniProt P49840).
T28 construct: purchased Eurofins DiscoverX KINOMEscan
The assay is described as follows: KINOMEscan binding assay at 1 μM, GSK3A. The note with it: Compound Concentration 1000 nM; read-out: Percent Control.
Text: as §2

A further assay deals with T29, JNK3 (Homo sapiens, UniProt P53779).
T29 construct: purchased Eurofins DiscoverX KINOMEscan
The assay is described as follows: KINOMEscan binding assay at 1 μM, JNK3. The settings on record: Compound Concentration 1000 nM; read-out: Percent Control.
Text: as §2

T10 sequence (Q02763 23-1124): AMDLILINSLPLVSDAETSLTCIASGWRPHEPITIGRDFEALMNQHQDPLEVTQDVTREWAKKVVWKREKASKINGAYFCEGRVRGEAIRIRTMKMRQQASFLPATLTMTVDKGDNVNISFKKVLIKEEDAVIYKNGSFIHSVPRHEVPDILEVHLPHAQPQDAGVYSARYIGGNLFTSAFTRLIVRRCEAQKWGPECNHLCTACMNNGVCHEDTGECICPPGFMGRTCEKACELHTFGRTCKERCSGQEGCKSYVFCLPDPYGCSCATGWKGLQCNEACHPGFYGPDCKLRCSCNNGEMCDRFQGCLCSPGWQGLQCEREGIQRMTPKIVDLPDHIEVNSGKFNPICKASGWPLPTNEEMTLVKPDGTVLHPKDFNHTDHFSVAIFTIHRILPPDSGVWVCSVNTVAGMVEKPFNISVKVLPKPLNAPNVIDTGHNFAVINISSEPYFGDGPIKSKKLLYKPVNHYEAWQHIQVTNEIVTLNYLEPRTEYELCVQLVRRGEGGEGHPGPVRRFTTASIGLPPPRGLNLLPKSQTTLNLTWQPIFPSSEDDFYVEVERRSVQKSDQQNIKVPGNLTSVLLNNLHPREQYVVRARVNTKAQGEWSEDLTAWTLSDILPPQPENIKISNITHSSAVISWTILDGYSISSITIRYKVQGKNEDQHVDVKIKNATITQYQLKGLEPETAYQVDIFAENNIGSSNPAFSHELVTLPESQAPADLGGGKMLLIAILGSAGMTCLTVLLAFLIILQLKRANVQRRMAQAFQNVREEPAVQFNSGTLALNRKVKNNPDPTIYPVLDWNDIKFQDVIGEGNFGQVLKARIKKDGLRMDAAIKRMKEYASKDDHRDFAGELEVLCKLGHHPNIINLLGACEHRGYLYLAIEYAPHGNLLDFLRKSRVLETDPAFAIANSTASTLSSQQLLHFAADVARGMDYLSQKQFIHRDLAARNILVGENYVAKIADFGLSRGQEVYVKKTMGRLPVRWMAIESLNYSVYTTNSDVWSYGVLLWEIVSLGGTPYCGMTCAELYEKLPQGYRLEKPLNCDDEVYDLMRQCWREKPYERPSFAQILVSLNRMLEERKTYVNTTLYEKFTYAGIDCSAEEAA
T8 sequence (Q13131 whole entry): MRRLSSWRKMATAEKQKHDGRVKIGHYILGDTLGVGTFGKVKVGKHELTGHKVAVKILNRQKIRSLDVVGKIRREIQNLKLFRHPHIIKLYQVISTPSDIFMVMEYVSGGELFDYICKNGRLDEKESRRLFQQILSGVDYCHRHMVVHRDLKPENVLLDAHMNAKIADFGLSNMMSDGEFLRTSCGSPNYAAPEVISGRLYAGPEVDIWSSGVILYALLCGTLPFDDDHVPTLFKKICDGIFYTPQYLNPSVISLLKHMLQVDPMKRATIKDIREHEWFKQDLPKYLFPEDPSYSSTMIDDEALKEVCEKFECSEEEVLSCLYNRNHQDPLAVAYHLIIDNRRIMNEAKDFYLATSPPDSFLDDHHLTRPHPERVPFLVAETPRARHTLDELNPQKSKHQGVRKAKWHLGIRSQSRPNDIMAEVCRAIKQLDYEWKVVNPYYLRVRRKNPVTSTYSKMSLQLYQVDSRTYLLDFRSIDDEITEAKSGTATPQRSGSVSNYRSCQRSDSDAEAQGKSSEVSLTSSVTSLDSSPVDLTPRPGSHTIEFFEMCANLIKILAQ
T20 sequence (O00506 whole entry): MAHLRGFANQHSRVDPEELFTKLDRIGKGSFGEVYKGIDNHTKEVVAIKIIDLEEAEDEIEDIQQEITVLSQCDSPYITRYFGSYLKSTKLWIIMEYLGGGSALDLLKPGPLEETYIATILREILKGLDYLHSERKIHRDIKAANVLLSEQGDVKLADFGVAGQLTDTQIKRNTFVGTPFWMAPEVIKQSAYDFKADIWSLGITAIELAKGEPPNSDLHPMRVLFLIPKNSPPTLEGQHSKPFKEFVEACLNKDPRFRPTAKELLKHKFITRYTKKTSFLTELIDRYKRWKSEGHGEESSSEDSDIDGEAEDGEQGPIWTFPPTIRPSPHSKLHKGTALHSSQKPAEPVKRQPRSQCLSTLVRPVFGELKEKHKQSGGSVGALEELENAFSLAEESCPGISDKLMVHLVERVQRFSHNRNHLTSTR
T23 sequence (P42679 whole entry): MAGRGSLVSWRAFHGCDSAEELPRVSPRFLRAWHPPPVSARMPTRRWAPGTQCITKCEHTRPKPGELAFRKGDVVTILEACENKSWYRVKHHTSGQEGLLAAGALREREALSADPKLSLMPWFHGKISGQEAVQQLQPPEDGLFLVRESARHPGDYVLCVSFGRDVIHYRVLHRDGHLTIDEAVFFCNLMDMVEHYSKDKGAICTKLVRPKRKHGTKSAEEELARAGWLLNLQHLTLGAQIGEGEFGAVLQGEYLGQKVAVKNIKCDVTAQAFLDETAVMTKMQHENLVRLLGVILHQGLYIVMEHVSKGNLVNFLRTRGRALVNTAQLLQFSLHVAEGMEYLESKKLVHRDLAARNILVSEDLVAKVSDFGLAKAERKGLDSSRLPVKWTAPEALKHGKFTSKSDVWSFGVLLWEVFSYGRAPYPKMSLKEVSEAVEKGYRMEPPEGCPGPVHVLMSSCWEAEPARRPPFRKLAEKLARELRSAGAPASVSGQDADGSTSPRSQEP
T14 sequence (P22607 23-806 G697C): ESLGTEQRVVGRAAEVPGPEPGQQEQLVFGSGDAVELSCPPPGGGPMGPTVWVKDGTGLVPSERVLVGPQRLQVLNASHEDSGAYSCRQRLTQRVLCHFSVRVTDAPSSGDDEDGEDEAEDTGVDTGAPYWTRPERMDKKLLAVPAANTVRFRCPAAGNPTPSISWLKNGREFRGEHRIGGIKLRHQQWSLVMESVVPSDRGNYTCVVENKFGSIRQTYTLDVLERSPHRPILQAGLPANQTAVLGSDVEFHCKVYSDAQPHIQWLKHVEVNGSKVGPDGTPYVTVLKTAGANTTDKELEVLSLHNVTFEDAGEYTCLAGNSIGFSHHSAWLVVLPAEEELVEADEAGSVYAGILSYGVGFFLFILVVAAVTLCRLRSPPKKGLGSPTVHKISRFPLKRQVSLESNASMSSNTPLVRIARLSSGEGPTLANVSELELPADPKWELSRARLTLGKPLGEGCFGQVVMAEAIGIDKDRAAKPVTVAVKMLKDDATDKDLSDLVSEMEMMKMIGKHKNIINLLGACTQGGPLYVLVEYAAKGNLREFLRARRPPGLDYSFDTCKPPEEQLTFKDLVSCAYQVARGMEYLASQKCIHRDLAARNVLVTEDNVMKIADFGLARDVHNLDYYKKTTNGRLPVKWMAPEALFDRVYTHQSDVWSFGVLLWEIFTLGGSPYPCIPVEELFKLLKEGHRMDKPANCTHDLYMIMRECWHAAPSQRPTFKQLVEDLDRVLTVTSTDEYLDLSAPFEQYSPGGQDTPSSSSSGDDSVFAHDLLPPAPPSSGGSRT
T6 sequence (P68400 whole entry): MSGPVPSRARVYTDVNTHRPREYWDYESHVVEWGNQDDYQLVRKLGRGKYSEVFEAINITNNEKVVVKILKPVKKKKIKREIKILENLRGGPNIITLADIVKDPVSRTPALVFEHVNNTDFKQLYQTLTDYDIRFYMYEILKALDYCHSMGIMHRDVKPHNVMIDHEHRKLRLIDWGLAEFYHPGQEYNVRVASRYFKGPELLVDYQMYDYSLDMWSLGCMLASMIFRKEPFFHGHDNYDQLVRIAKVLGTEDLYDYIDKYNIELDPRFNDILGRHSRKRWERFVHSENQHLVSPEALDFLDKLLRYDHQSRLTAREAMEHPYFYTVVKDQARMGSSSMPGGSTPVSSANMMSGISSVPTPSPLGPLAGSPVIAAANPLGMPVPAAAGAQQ
T18 sequence (P42336 whole entry Q546K): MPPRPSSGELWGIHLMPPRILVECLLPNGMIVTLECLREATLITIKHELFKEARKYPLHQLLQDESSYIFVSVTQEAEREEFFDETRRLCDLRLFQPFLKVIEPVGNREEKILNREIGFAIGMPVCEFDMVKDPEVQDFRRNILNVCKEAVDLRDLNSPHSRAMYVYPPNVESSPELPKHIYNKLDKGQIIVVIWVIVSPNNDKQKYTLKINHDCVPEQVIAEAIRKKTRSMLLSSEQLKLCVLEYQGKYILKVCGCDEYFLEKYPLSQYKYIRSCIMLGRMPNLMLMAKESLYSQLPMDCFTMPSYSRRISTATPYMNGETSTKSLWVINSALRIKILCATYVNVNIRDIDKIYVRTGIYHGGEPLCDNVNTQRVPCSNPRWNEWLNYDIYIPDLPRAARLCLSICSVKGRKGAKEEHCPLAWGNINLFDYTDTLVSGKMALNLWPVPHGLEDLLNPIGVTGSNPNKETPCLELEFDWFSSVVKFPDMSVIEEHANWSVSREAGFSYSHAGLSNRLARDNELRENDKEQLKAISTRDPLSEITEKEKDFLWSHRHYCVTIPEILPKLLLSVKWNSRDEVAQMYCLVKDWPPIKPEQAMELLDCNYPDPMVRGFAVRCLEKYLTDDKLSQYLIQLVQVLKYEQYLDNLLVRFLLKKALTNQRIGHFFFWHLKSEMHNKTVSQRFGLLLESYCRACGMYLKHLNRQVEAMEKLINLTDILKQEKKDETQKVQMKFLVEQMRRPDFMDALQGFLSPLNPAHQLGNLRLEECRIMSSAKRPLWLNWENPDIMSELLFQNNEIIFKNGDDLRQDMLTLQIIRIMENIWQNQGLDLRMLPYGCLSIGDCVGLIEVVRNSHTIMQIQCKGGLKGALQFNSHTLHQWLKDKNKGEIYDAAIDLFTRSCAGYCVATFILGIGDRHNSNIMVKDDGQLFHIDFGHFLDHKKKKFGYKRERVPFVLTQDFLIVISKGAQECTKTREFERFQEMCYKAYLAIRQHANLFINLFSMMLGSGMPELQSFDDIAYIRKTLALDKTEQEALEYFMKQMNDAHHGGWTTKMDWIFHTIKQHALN
T2 sequence (P42336 whole entry H1047L): as the sequence (P42336 whole entry Q546K) above, with K546Q, H1047L counted along it

For the compound `Cc1cccc(-c2cnc3occ(-c4ccc(C(=O)O)c(C5CCCC5)c4)c3c2)c1` [SGC-CAMKK2-1 (YL-36)], the remaining binding at 1 µM at CDK8 was found to be 72%; on PIK3CA(H1047L), 78%; at SLK it was 85%; at LIMK2, 86%; on KIT(D816H) it was 87%; at CSNK2A1, 94%. For the same compound, the remaining binding at 1 µM at RET(V804L) is 94%; at AMPK-alpha1 [1], 95%; on CDKL2, 96%; at TIE2 [2], 97%; at BRSK2, 100%; at CAMK4 it was 100%. Moreover, the remaining binding at 1 µM on DRAK1, at FGFR3(G697C), on FLT3(K663Q), at LRRK2(G2019S), on MARK2 and at PIK3CA(Q546K) was 100% throughout. The remaining binding at 1 µM (in assay [3]; at YSK1) was 100% throughout.
As for `O=C(O)c1ccc(-c2coc3ncc(-c4ccccc4)cc23)cc1Cl` [SGC-CAMKK2-1N (UNC-YL-83)], the remaining binding at 1 µM at STK16 amounted to 42%; on GRK2, 55%; at CTK, 63%; on FLT1, 76%; on TIE2 [4], 79%; at CSNK2A2, 98%. The remaining binding at 1 µM on p38-delta stood at 98%; at CSNK1D, 99%; on AMPK-alpha1 [5], 100%; at GSK3A it was 100%; at JNK3, 100%.
